Legend:
[1] = system: Male Long Evans rats; assay: V-maze test (PCP-disrupted visual-spatial working memory); assay type: in vivo, rat; details: p.o. 4 h before test
From the text: The V-maze-test is a two-trial short term visual-spatial working memory task based on spontaneous exploration of a new and a familiar arm in a 2-arm maze (Embrechts et al. (2013) “Longitudinal characterization of the TauPS2APP mouse model of Alzheimer's disease in a two trial discrimination task of visuo-spatial recognition memory”, 45th European Brain and Behaviour Society Meeting 6-9 Sep. 2013, Munich, Abstract P202).
Male Long Evans rats (Janvier, France, body weight 280 to 295 g) were group housed in enriched individually ventilated cages and habituated to environmental conditions for 5 days. After acclimatization, animals were single housed for 4 days until testing. During this period animals were handled for 2 min per day and received sham dosing once a day for 3 days prior to the test. The V-maze consisted of two arms (L×W×H: 70×10×30 cm) at a 90° angle to each other to form a V-shaped maze connected by guillotine doors to a center zone. […] The animal's exploration of each arm was automatically quantified using Ethovision XT 7.0 (Noldus, The Netherlands). […] The time spent in the familiar and new arm respectively during the choice session was recorded for 5 min.
Co. No. 1 was evaluated in rats in a series of dose-response studies evaluating doses from 0.16 to 10 mg/kg. […]

[2] = system: rats; assay: Reversal of the effect of the mGluR2 PAM JNJ-42153605 on scopolamine-induced hyperlocomotion; assay type: in vivo; details: Rattus norvegicus, 1 h, test compound 60 min before recording, criterion total distance >1500 cm
Method in brief: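 Rats pretreated with test compound or vehicle 60 min before recording, given JNJ-42153605 (20 mg/kg, i.v.) at 30 min prior, then scopolamine (0.16 mg/kg, i.v.) immediately before. Total distance travelled over the first 30 min was video-tracked. All-or-none scoring: reversal >1500 cm, normalization >4400 cm.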

[3] = system: Male Wiga Wistar rats; assay: Reversal of LY-404039-induced decrease of palpebral opening in apomorphine-challenged rats; assay type: in vivo; details: Rattus norvegicus, reversal of LY-404039-induced decrease of palpebral opening (cumulative score >26) in apomorphine challenged rats
Procedure: 6) Reversal of LY-404039-Induced Decrease of Palpebral Opening in Apomorphine-Challenged Rats.
Male Wiga Wistar rats (Crl:WI; Charles River Germany; 220±40 g) were housed under standard laboratory conditions (21±2° C.; 50-65% relative humidity; light-dark cycle set at 12 h; lights on at 6.00 h) and fasted overnight prior to the start of the experiments (tap water remained available ad libitum). During the test period, they were housed in individual cages. The local Ethical Committee approved all studies in compliance with the Declaration of Helsinki. Palpebral opening was scored every 5 min over the first hour after injection of apomorphine (1.0 mg/kg, i.v.) in animals either pretreated or not pretreated with LY-404039 (2.5 mg/kg, s.c.) at 1 h prior to the apomorphine injection. The animals were also pretreated with test compound or solvent at a predefined interval before apomorphine challenge. The score system was: (5) exophthalmos, (4) wide open, (3) open for three-quarters, (2) half open, (1) open for one-quarter, (0) closed. The scores for palpebral opening were cumulated over the 60-min observation period. A cumulative palpebral opening score >26 was selected for drug-induced reversal of the LY-404039-induced decrease of palpebral opening (occurrence in 3.2% of control animals pretreated with LY-404039 (n=154) versus in 99.5% of control rats not pretreated with LY-404039 (n=6335)).
In animals receiving apomorphine alone the median palpebral opening is 43 whereas in animals receiving apomorphine and LY-404039, the median palpebral opening is 17.

Cc1cc(-c2cnn3c2C(=O)N(c2ccc(C(F)(F)F)cc2)C[C@@H]3C)ccn1 [compound 1, (7S)-7-Methyl-3-(2-methylpyridin-4-yl)-5-[4-(trifluoromethyl)phenyl]-6,7-dihydropyrazolo[1,5-a]pyrazin-4(5H)-one]
reversal effect against PCP observed up to the highest dose tested ([1]; PCP 0.75 mg/kg s.c.): ≤ 10 mg/kg
doses at which PCP-challenged rats showed again a clear preference for the new arm ([1]; PCP 0.75 mg/kg s.c. 30 min prior, doses 0.16 to 10 mg/kg evaluated): ≥ 0.32 mg/kg
ED50 ([2]; Route PO): 0.45 mg/kg
ED50 ([2]; Route SC): 3.54 mg/kg
ED50 ([3]; Route PO): 0.45 mg/kg
ED50 ([3]; Route SC): 0.3 mg/kg
